Assay results published in ChEMBL document CHEMBL5154811, “Discovery of SPH5030, a Selective, Potent, and Irreversible Tyrosine Kinase Inhibitor for HER2-Amplified and HER2-Mutant Cancer Treatment” (J Med Chem, 2022).

Legend:
NCI-N87 [1] = test: Antitumor activity against human NCI-N87 cells xenografted in BALB/c nude mouse assessed as tumor growth inhibition at 20 mg/kg/day, po administered once daily for 21 days relative to control; format: functional; conditions: NCI-N87, 504 h, time 21 day, read-out: TGI
NCI-N87 [2] = test: Antitumor activity against human NCI-N87 cells xenografted in BALB/c nude mouse assessed as tumor growth inhibition by measuring relative tumor growth at 5 mg/kg/day, po administered once daily for 21 days by caliper method relative to control; format: functional; conditions: time 21 day
NCI-N87 [3] = test: Antitumor activity against human NCI-N87 cells xenografted in BALB/c nude mouse assessed as tumor growth inhibition by measuring relative tumor growth at 10 mg/kg/day, po administered once daily for 21 days by caliper method relative to control; format: functional; conditions: time 21 day
[4] = Oral bioavailability in ICR mouse at 10 mg/kg measured upto 1440 mins by LC/MS/MS analysis; format: ADME, organism-based; conditions: in vivo
[5] = molecular target: Epidermal growth factor receptor (Homo sapiens, UniProt P00533); test: Inhibition of wild type human N-terminal GST tagged EGFR (669 to 1210 residues) expressed in Sf21 insect cells incubated for 30 mins in presence of ATP by HTRF analysis
[6] = molecular target: Receptor tyrosine-protein kinase erbB-2 (Homo sapiens, UniProt P04626, V777L); test: Inhibition of HER2 V777L mutant (unknown origin) incubated for 120 mins in presence of 33P-ATP by P81 ion exchange cellulose chromatography
BT-474 [7] = test: Antitumor activity against human BT-474 cells xenografted in BALB/c nude mouse assessed as tumor growth inhibition by measuring relative tumor growth at 5 mg/kg/day, po administered once daily for 21 days by caliper method relative to control; format: functional; conditions: time 21 day
BaF3 [8] = test: Antitumor activity against mouse BaF3 cells harbouring HER2 A775_G776insYVMA mutant xenografted in BALB/c nude mouse assessed as tumor growth inhibition by measuring relative tumor growth at 20 mg/kg, po qd for 13 days by caliper method relative to control; format: functional; conditions: time 13 day
[9] = Half life in cynomolgus monkey at 1 mg/kg, iv measured upto 1440 mins by LC/MS/MS analysis; format: ADME, organism-based, Macaca fascicularis; conditions: in vivo
[10] = Toxicity in BALB/c nude mouse xenografted with human NCI-N87 cells assessed as mortality at 5 to 40 mg/kg, po administered once daily for 21 days; format: organism-based; conditions: in vivo, 504 h, dose 5-40 mg/kg, time 21 day
[11] = Clearance in cynomolgus monkey at 1 mg/kg, iv measured upto 1440 mins by LC/MS/MS analysis; format: ADME, organism-based, Macaca fascicularis; conditions: in vivo
[12] = Metabolic stability in human liver microsomes assessed as intrinsic clearance at 1 uM preincubated for 5 mins followed by NADPH addition by LC-MS/MS analysis; format: ADME, Microsome; conditions: read-out: CLH
[13] = AUC (0 to t) in ICR mouse at 10 mg/kg, po measured upto 1440 mins by LC/MS/MS analysis; format: ADME, organism-based; set-up: time < 1440 min, dose 10 mg/kg, route po; conditions: in vivo
[14] = Toxicity in BALB/c nude mouse xenografted with human BT-474 cells assessed as reduction in body weight at 5 to 40 mg/kg, po administered once daily for 21 days; format: organism-based; conditions: in vivo, 504 h, dose 5-40 mg/kg, time 21 day
[15] = Toxicity in BALB/c nude mouse xenografted with mouse BaF3 cells harbouring HER2 A775_G776insYVMA mutant assessed as mortality at 10 to 40 mg/kg, po qd for 13 days; format: organism-based; conditions: in vivo, 312 h, dose 10-40 mg/kg, time 13 day
[16] = Half life in Sprague-Dawley rat at 3 mg/kg, iv measured upto 1440 mins by LC/MS/MS analysis; format: ADME, organism-based; conditions: in vivo
BT-474 [17] = test: Antitumor activity against human BT-474 cells xenografted in BALB/c nude mouse assessed as tumor growth inhibition by measuring relative tumor growth at 20 mg/kg/day, po administered once daily for 21 days by caliper method relative to control; format: functional; conditions: time 21 day
BaF3 [18] = test: Antitumor activity against mouse BaF3 cells harbouring HER2 A775_G776insYVMA mutant xenografted in BALB/c nude mouse assessed as tumor growth inhibition at 20 mg/kg, po qd measured for 13 days relative to control; format: functional; conditions: BaF3, 312 h, time 13 day, read-out: TGI
[19] = Toxicity in BALB/c nude mouse xenografted with human BT-474 cells assessed as mortality at 5 to 40 mg/kg, po administered once daily for 21 days; format: organism-based; conditions: in vivo, 504 h, dose 5-40 mg/kg, time 21 day
[20] = Tmax in ICR mouse at 10 mg/kg, po measured upto 1440 mins by LC/MS/MS analysis; format: ADME, organism-based; conditions: in vivo
[21] = Antiproliferative activity against human KM12-Luc cells assessed as cell growth inhibition incubated for 72 hrs by Celltiter-Glo assay; format: functional, cell-based
BT-474 [22] = test: Antitumor activity against human BT-474 cells xenografted in BALB/c nude mouse assessed as tumor growth inhibition at 10 mg/kg/day, po administered once daily for 21 days relative to control; format: functional; conditions: BT-474, 504 h, time 21 day, read-out: TGI
[23] = Oral bioavailability in Sprague-Dawley rat at 10 mg/kg measured upto 1440 mins by LC/MS/MS analysis; format: ADME, organism-based; conditions: in vivo
[24] = Tmax in Sprague-Dawley rat at 10 mg/kg, po measured upto 1440 mins by LC/MS/MS analysis; format: ADME, organism-based; conditions: in vivo
[25] = Volume of distribution at steady state in ICR mouse at 3 mg/kg, iv measured upto 1440 mins by LC/MS/MS analysis; format: ADME, organism-based; conditions: in vivo, read-out: Vdss
SK-BR-3 = test: Antiproliferative activity against human SK-BR-3 cells overexpressing wild type HER2 assessed as cell growth inhibition incubated for 72 hrs by Celltiter-Glo assay; format: functional, cell-based; conditions: SK-BR-3, 72 h
[26] = Cmax in cynomolgus monkey at 15 mg/kg, po measured upto 1440 mins by LC/MS/MS analysis; format: ADME, organism-based, Macaca fascicularis; set-up: dose 15 mg/kg, time < 1440 min, route po; conditions: in vivo
BT-474 [27] = test: Antitumor activity against human BT-474 cells xenografted in BALB/c nude mouse assessed as tumor growth inhibition by measuring relative tumor growth at 10 mg/kg/day, po administered once daily for 21 days by caliper method relative to control; format: functional; conditions: time 21 day
NUGC-4 = test: Antiproliferative activity against human NUGC-4 cells assessed as cell growth inhibition incubated for 72 hrs by Celltiter-Glo assay; format: functional, cell-based; conditions: NUGC-4, 72 h

Sequence of Epidermal growth factor receptor (P00533 whole entry, the tested form may be a part): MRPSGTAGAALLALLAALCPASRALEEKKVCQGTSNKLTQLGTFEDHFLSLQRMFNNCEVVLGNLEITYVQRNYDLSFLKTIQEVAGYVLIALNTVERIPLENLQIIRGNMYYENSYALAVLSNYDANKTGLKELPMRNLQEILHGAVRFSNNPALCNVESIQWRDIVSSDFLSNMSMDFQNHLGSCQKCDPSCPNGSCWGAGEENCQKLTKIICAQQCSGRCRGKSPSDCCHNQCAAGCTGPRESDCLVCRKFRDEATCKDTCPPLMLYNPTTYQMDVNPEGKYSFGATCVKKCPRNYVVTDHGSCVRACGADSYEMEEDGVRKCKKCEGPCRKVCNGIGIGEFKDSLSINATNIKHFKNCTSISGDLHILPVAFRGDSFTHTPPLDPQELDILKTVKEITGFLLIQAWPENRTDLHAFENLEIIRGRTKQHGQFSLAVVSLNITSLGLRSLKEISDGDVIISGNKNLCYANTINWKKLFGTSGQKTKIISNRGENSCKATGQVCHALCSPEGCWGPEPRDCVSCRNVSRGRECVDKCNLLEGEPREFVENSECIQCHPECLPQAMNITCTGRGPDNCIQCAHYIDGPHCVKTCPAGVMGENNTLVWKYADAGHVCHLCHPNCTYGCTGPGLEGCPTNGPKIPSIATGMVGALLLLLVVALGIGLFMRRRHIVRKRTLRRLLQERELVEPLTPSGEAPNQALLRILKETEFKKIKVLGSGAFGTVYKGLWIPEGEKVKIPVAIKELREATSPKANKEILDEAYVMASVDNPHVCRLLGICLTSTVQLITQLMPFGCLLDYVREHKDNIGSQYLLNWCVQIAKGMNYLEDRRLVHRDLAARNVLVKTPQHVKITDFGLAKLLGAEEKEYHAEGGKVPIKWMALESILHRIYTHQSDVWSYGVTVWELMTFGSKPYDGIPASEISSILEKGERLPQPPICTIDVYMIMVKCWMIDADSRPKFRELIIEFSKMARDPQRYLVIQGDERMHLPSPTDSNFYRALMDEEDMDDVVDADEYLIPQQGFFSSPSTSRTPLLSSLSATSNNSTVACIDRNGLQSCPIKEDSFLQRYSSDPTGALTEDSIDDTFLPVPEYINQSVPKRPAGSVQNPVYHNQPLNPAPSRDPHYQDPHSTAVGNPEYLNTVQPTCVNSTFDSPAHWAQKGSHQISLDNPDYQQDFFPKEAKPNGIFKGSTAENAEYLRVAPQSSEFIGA
Sequence of Receptor tyrosine-protein kinase erbB-2 (P04626 23-1255 V777L limits assumed): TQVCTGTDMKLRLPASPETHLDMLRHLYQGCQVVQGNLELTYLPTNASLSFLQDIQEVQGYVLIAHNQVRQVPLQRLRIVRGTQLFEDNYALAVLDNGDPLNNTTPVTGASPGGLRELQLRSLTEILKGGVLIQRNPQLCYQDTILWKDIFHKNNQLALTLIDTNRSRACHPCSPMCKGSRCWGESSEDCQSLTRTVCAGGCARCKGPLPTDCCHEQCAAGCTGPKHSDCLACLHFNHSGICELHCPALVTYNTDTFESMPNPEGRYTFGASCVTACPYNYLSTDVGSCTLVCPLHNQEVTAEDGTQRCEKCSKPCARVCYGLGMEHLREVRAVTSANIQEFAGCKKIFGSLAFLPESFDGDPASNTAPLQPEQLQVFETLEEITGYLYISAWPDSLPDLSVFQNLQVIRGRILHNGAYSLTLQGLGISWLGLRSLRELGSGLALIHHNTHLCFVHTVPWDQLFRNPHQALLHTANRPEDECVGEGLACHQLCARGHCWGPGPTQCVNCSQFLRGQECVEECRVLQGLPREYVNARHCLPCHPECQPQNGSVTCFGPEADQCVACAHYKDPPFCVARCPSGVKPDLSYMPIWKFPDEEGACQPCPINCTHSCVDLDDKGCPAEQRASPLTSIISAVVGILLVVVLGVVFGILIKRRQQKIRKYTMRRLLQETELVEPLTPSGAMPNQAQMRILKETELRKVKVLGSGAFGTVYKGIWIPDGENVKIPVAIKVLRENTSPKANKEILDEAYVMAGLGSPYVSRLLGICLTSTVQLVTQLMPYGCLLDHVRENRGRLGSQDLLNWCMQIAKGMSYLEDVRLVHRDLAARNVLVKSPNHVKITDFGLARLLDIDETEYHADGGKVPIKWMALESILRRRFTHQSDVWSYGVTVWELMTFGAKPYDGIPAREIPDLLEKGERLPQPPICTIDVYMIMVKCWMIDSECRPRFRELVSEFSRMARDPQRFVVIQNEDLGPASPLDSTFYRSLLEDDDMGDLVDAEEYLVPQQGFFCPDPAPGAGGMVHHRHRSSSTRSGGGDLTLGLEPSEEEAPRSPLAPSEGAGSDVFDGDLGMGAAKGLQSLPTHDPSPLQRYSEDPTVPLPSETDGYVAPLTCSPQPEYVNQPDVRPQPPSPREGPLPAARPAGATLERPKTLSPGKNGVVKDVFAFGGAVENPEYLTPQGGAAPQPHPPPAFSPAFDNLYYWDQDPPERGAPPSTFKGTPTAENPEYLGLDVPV

`CCOc1cc2ncnc(Nc3ccc(Oc4cc5nncn5cn4)c(C)c3)c2cc1NC(=O)/C(F)=C/[C@H]1CCCN1C` showed an inhibition in vivo at 20 mg/kg/day (NCI-N87 [1]) of 114%, a T/C (NCI-N87 [2]) of 5.26% and a T/C (NCI-N87 [3]) of 2.6%. The bioavailability [4] was 87.7%, the IC50 [5] was 8.13 nM and the IC50 [6] was 0.16 nM. For the same compound, the T/C (BT-474 [7]) was 17.68%, the T/C (BaF3 [8]) was 6.89% and the half-life [9] was 7.46 h. For the same compound, the Activity [10] was “Non-Toxic”, the clearance [11] was 10.2 mL/min/kg and the microsomal CLint at 1 µM [12] was 2.5 µL/min/mg. The AUC(0-t) at 24 h [13] was 13100 ng·h/mL, the Activity [14] was “Non-Toxic” and the Activity [15] was “Non-Toxic”. The half-life [16] was 4.56 h, the T/C (BT-474 [17]) was 7.68% and the inhibition in vivo at 20 mg/kg (BaF3 [18]) was 107%. For the same compound, the Activity [19] was “Non-Toxic”, the Tmax [20] was 2.67 h and the IC50 [21] was 3600 nM. It also gave an inhibition in vivo at 10 mg/kg/day (BT-474 [22]) of 123%, a bioavailability [23] of 71.3% and a Tmax [24] of 3.33 h. For the same compound, the Vd [25] was 2.96 L/kg, the IC50 (SK-BR-3) was 20.1 nM and the Cmax [26] was 790 ng/mL. It also gave a T/C (BT-474 [27]) of 8.31% and an IC50 (NUGC-4) of 1220 nM.
